Assay results: PubChem BioAssay (NCI)
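Assay format: 96-well plates, 48-hour exposure. TGI: total growth inhibition.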

What was measured:
Assay in all cases: DTP human tumour cell line panel, 48 h
DU-145 prostate = test system: DU-145 prostate
T-47D breast = test system: T-47D breast
NCI/ADR-RES ovarian = test system: NCI/ADR-RES ovarian
K-562 leukemia = test system: K-562 leukemia
IGROV1 ovarian = test system: IGROV1 ovarian
SK-OV-3 ovarian = test system: SK-OV-3 ovarian
MDA-MB-435 = test system: MDA-MB-435
MCF7 breast = test system: MCF7 breast
SF-295 CNS = test system: SF-295 CNS
U251 CNS = test system: U251 CNS

Work on CCOC(=O)c1cn(CC)c2cc3c(cc2c1=O)CCS3(=O)=O yielded a TGI (DU-145 prostate) greater than 100 µM, a TGI (T-47D breast) greater than 100 µM and a TGI (NCI/ADR-RES ovarian) greater than 100 µM. For the same molecule, the TGI (K-562 leukemia) was greater than 100 µM, the TGI (IGROV1 ovarian) was greater than 100 µM and the TGI (SK-OV-3 ovarian) was greater than 100 µM. It also gave a TGI (MDA-MB-435) greater than 100 µM, a TGI (MCF7 breast) greater than 100 µM and a TGI (SF-295 CNS) greater than 100 µM. The TGI (U251 CNS) was greater than 100 µM.
Work on O=C(Cc1ccccc1)N=Nc1c(O)[nH]c2ccccc12 yielded a TGI (DU-145 prostate) greater than 100 µM, a TGI (T-47D breast) greater than 100 µM and a TGI (NCI/ADR-RES ovarian) greater than 100 µM. It also gave a TGI (K-562 leukemia) greater than 100 µM, a TGI (IGROV1 ovarian) greater than 100 µM and a TGI (SK-OV-3 ovarian) greater than 100 µM. The TGI (MDA-MB-435) was greater than 100 µM, the TGI (MCF7 breast) was greater than 100 µM and the TGI (SF-295 CNS) was greater than 100 µM. The TGI (U251 CNS) was greater than 100 µM.
With O=C(NN1C(=O)CSC1c1ccco1)c1ccncc1 (stereo not given) the TGI (DU-145 prostate) was greater than 100 µM, the TGI (T-47D breast) was greater than 100 µM and the TGI (NCI/ADR-RES ovarian) was greater than 100 µM. For the same molecule, the TGI (K-562 leukemia) was greater than 100 µM, the TGI (IGROV1 ovarian) was greater than 100 µM and the TGI (SK-OV-3 ovarian) was greater than 100 µM. For the same molecule, the TGI (MDA-MB-435) was greater than 100 µM, the TGI (MCF7 breast) was greater than 100 µM and the TGI (SF-295 CNS) was greater than 100 µM. For the same molecule, the TGI (U251 CNS) was greater than 100 µM.
COc1ccc2oc(=Nc3ccc(F)cc3)c(C(N)=O)cc2c1 gave a TGI (DU-145 prostate) greater than 100 µM, a TGI (T-47D breast) of 94.8 µM and a TGI (NCI/ADR-RES ovarian) greater than 100 µM. The TGI (K-562 leukemia) was greater than 100 µM, the TGI (IGROV1 ovarian) was greater than 100 µM and the TGI (SK-OV-3 ovarian) was 52.1 µM. The TGI (MDA-MB-435) was greater than 100 µM, the TGI (MCF7 breast) was greater than 100 µM and the TGI (SF-295 CNS) was greater than 100 µM. For the same molecule, the TGI (U251 CNS) was greater than 100 µM.
Work on CCCCNC(=S)c1ccc(OC(=O)Nc2ccc(Cl)cc2)cc1 yielded a TGI (DU-145 prostate) greater than 100 µM, a TGI (T-47D breast) greater than 100 µM and a TGI (NCI/ADR-RES ovarian) greater than 100 µM. For the same molecule, the TGI (K-562 leukemia) was greater than 100 µM, the TGI (IGROV1 ovarian) was 70.4 µM and the TGI (SK-OV-3 ovarian) was greater than 100 µM. It also gave a TGI (MDA-MB-435) greater than 100 µM, a TGI (MCF7 breast) greater than 100 µM and a TGI (SF-295 CNS) greater than 100 µM. The TGI (U251 CNS) was greater than 100 µM.
Molecule O=[N+]([O-])c1ccc2nc(/C=C(\O)c3ccccc3)c(/C=C(\O)c3ccccc3)nc2c1 has a TGI (DU-145 prostate) greater than 91 µM, a TGI (T-47D breast) of 37.3 µM and a TGI (NCI/ADR-RES ovarian) greater than 89 µM. For the same molecule, the TGI (K-562 leukemia) was greater than 100 µM, the TGI (IGROV1 ovarian) was greater than 56.4 µM and the TGI (SK-OV-3 ovarian) was greater than 75.4 µM. The TGI (MDA-MB-435) was greater than 56.2 µM, the TGI (MCF7 breast) was greater than 100 µM and the TGI (SF-295 CNS) was 48.3 µM. The TGI (U251 CNS) was 22.9 µM.
Molecule NC(=O)C[C@H](NC(=O)C1(NC(=O)[C@H](Cc2ccc(CP(=O)(O)O)cc2)NC(=O)C(=O)O)CCCCC1)C(=O)NCCCc1cccc2ccccc12 has a TGI (DU-145 prostate) greater than 10 µM, a TGI (T-47D breast) greater than 10 µM and a TGI (NCI/ADR-RES ovarian) greater than 10 µM. The TGI (K-562 leukemia) was greater than 10 µM, the TGI (IGROV1 ovarian) was greater than 10 µM and the TGI (SK-OV-3 ovarian) was greater than 10 µM. It also gave a TGI (MDA-MB-435) greater than 10 µM, a TGI (MCF7 breast) greater than 10 µM and a TGI (SF-295 CNS) greater than 10 µM. The TGI (U251 CNS) was greater than 10 µM.
In the case of N#CCOc1cccc(C2(N3CC=CCC3)CCCCC2)c1, the TGI (DU-145 prostate) is reported as greater than 100 µM, the TGI (T-47D breast) is reported as greater than 100 µM and the TGI (NCI/ADR-RES ovarian) is reported as greater than 100 µM. For the same molecule, the TGI (K-562 leukemia) was greater than 100 µM, the TGI (IGROV1 ovarian) was greater than 100 µM and the TGI (SK-OV-3 ovarian) was greater than 100 µM. It also gave a TGI (MDA-MB-435) greater than 100 µM, a TGI (MCF7 breast) greater than 100 µM and a TGI (SF-295 CNS) greater than 100 µM. For the same molecule, the TGI (U251 CNS) was greater than 100 µM.
Work on COP(=O)(OC)c1ccc(NCc2cc(O)ccc2O)cc1 yielded a TGI (DU-145 prostate) greater than 90.5 µM, a TGI (T-47D breast) of 70.1 µM and a TGI (NCI/ADR-RES ovarian) greater than 84.5 µM. The TGI (K-562 leukemia) was greater than 96.8 µM, the TGI (IGROV1 ovarian) was greater than 67.1 µM and the TGI (SK-OV-3 ovarian) was greater than 100 µM. It also gave a TGI (MDA-MB-435) of 74.1 µM, a TGI (MCF7 breast) of 99.3 µM and a TGI (SF-295 CNS) of 35.2 µM. For the same molecule, the TGI (U251 CNS) was greater than 72.1 µM.
COc1ccc(-c2nnc(CCCCCCCCc3nnc(-c4ccc(OC)cc4)n3N)n2N)cc1 gave a TGI (DU-145 prostate) greater than 100 µM, a TGI (T-47D breast) greater than 100 µM and a TGI (NCI/ADR-RES ovarian) greater than 31.6 µM. For the same molecule, the TGI (K-562 leukemia) was greater than 100 µM, the TGI (IGROV1 ovarian) was greater than 100 µM and the TGI (SK-OV-3 ovarian) was greater than 100 µM. For the same molecule, the TGI (MDA-MB-435) was greater than 100 µM, the TGI (MCF7 breast) was greater than 100 µM and the TGI (SF-295 CNS) was greater than 100 µM. For the same molecule, the TGI (U251 CNS) was greater than 100 µM.
With Cc1cc2c(cc1-c1cc3c(cc1C)C(C(C)C)=C(O)C(=O)/C3=C\Nc1c(C)n(C)n(-c3ccccc3)c1=O)/C(=C/Nc1c(C)n(C)n(-c3ccccc3)c1=O)C(=O)C(O)=C2C(C)C the TGI (DU-145 prostate) was greater than 100 µM, the TGI (T-47D breast) was greater than 100 µM and the TGI (NCI/ADR-RES ovarian) was greater than 100 µM. For the same molecule, the TGI (K-562 leukemia) was greater than 100 µM, the TGI (IGROV1 ovarian) was greater than 100 µM and the TGI (SK-OV-3 ovarian) was greater than 100 µM. It also gave a TGI (MDA-MB-435) greater than 100 µM, a TGI (MCF7 breast) greater than 100 µM and a TGI (SF-295 CNS) greater than 100 µM. For the same molecule, the TGI (U251 CNS) was greater than 100 µM.
Work on Cc1oncc1NC1=CC(=O)C(=O)c2ccccc21 yielded a TGI (DU-145 prostate) of 31.7 µM, a TGI (T-47D breast) of 11.5 µM and a TGI (NCI/ADR-RES ovarian) greater than 100 µM. The TGI (K-562 leukemia) was 27 µM, the TGI (IGROV1 ovarian) was 11.8 µM and the TGI (SK-OV-3 ovarian) was 37.8 µM. For the same molecule, the TGI (MDA-MB-435) was 3.51 µM, the TGI (MCF7 breast) was 9.63 µM and the TGI (SF-295 CNS) was 20.6 µM. It also gave a TGI (U251 CNS) of 17.3 µM.
CCCCCC(O)(CCCCC)CCCCCCCCC1=C(O)c2ccccc2C(=O)C1=O was tested, and the TGI (DU-145 prostate) was 25.7 µM, the TGI (T-47D breast) was 75.2 µM and the TGI (NCI/ADR-RES ovarian) was 21.8 µM. It also gave a TGI (K-562 leukemia) of 21.6 µM, a TGI (IGROV1 ovarian) of 26.4 µM and a TGI (SK-OV-3 ovarian) greater than 64.1 µM. It also gave a TGI (MDA-MB-435) greater than 62.4 µM, a TGI (MCF7 breast) of 23.6 µM and a TGI (SF-295 CNS) of 40.5 µM. The TGI (U251 CNS) was 14.5 µM.
Cc1nc2c(Cl)cc(Cl)cc2c(Cl)c1CCCl was tested, and the TGI (DU-145 prostate) was greater than 100 µM, the TGI (T-47D breast) was 89.7 µM and the TGI (NCI/ADR-RES ovarian) was greater than 100 µM. For the same molecule, the TGI (K-562 leukemia) was greater than 100 µM, the TGI (IGROV1 ovarian) was greater than 100 µM and the TGI (SK-OV-3 ovarian) was greater than 100 µM. For the same molecule, the TGI (MDA-MB-435) was greater than 100 µM, the TGI (MCF7 breast) was greater than 100 µM and the TGI (SF-295 CNS) was greater than 100 µM. It also gave a TGI (U251 CNS) greater than 100 µM.
Molecule CC(C)(C)OC(=O)N1Cc2cc(O)ccc2C[C@H]1C(=O)O has a TGI (DU-145 prostate) greater than 100 µM, a TGI (T-47D breast) greater than 100 µM and a TGI (NCI/ADR-RES ovarian) greater than 100 µM. The TGI (K-562 leukemia) was greater than 100 µM, the TGI (IGROV1 ovarian) was greater than 100 µM and the TGI (SK-OV-3 ovarian) was greater than 100 µM. The TGI (MDA-MB-435) was greater than 100 µM, the TGI (MCF7 breast) was greater than 100 µM and the TGI (SF-295 CNS) was greater than 100 µM. It also gave a TGI (U251 CNS) greater than 100 µM.
